According to EP0816329A1, “Benzoic acid derivatives, process for their preparation and their use for the treatment of diseases” (HOECHST AKTIENGESELLSCHAFT, priority 1996, dated 1998):

test system: Glucose-6-Phosphatase-System; experiment: Glucose-6-phosphatase enzyme test in liver microsomes (phosphate released from glucose-6-phosphate); format: biochemical, Wistar-Ratten; settings: Inhibitorkonzentration 100 µM; Glucose-6-Phosphat 1 mMol/l, 0,1 mg Mikrosomen-Fraktion, pH 7,0, 20 min, room temperature
Description: Die Wirkung der erfindungsgemäßen Verbindungen auf das Glucose-6-Phosphatase-System wurde in einem Enzymtest in Lebermikrosomen untersucht.
Für die Präparation der die Glucose-6-Phosphatase enthaltenden Mikrosomen-Fraktion wurden frische Leber-Organe von männlichen Wistar-Ratten verwendet und wie in der Literatur beschrieben aufgearbeitet [Canfield, W. K. Und Arion, W.J., J. Biol. Chem. 263, 7458-7460, (1988)]. Diese Mikrosomen-Fraktion kann bei -70°C mindestens 2 Monate lang ohne signifikamten Aktivitätsverlust aufbewahrt werden.
Der Nachweis der Glucose-6-Phosphatase-Aktivität wurde wie in der Literatur angegeben (Arion, W. J. in Methods Enzymol. 174, Academic Press 1989, Seite 58 - 67) durch Bestimmung des aus Glucose-6-Phosphat freigesetzten Phosphats durchgeführt. 0,1 ml Testansatz enthielten Glucose-6-Phosphat (1mMol/l), die Testsubstanz, 0,1 mg Mikrosomen-Fraktion und 100 mMol/l HEPES-Puffer (4-(2-Hydroxyethyl)piperazin-1-ethansulfonsäure), pH 7,0. Die Reaktion wurde durch Zugabe des Enzyms gestartet. Nach Ablauf von 20 Minuten bei Raumtemperatur wurde die Reaktion durch Zugabe von 0,2 ml Phosphat-Reagens gestoppt. Die Probe wurde 30 Minuten lang bei 37 °C inkubiert, und die Absorbtion (A) der blauen Farbe anschließend bei 570 nm gemessen. Die inhibitorische Wirksamkeit der Testsubstanz ergab sich durch Vergleich mit einer Kontroll-Reaktion, die keine Testsubstanz enthielt nach der Formel Prozent Hemmung =(A(Kontrolle) - A(Testsubstanz))/(A(Kontrolle))x 100 [formula]
Die hemmende Wirkung der Testsubstanz (Verbindungen 1 - 43) wurde bei den in der nachfolgenden Tabelle 1 angegebenen Konzentrationen der Testsubstanz ermittelt.

Row | SMILES | % Hemmung [%]
1 | COc1ccc2cc(-c3ccc(NC(=O)c4cccc(F)c4)cc3C(=O)O)ccc2c1 [Beispiel 8] | 77
2 | COc1ccc2cc(-c3ccc(NC(=O)CCC4CCCC4)cc3C(=O)O)ccc2c1 [Beispiel 9] | 64
3 | O=C(CCCc1ccc(Cl)cc1)Nc1ccc(-c2ccc(Cl)s2)c(C(=O)O)c1 [Beispiel 10] | 62
4 | O=C(C=Cc1ccccc1)Nc1ccc(-c2ccc(Cl)s2)c(C(=O)O)c1 [Beispiel 11] | 57
5 | O=C(Nc1ccc(-c2ccc(Cl)s2)c(C(=O)O)c1)c1ccc2ccccc2c1 [Beispiel 12] | 71
6 | CC(C)(C)c1ccc(-c2ccc(NC(=O)COc3ccccc3)cc2C(=O)O)cc1 [Beispiel 16] | 50
7 | CC(C)(C)c1ccc(-c2ccc(NC(=O)C3CCCC3)cc2C(=O)O)cc1 [Beispiel 17] | 53

Continued, values first:

Row | % Hemmung [%] | SMILES
8 | 53 | COc1ccc2cc(-c3ccc(NC(=O)C=Cc4ccccc4)cc3C(=O)O)ccc2c1 [Beispiel 1]
9 | 60 | COc1ccc2cc(-c3ccc(NC(=O)Cc4ccc(OC)c(OC)c4)cc3C(=O)O)ccc2c1 [Beispiel 2]
10 | 93 | COc1ccc2cc(-c3ccc(NC(=O)c4cccs4)cc3C(=O)O)ccc2c1 [Beispiel 3]
11 | 66 | O=C(Nc1ccc(CCCCCl)c(C(=O)O)c1)Nc1ccc(Cl)c(C(F)(F)F)c1 [Beispiel 4]
12 | 51 | COc1ccc2cc(-c3ccc(NC(=O)C4CC4)cc3C(=O)O)ccc2c1 [Beispiel 5]
13 | 61 | COc1ccc2cc(-c3ccc(NC(=O)c4ccco4)cc3C(=O)O)ccc2c1 [Beispiel 6]
14 | 63 | COc1ccc(OC)c(CC(=O)Nc2ccc(-c3ccc4cc(OC)ccc4c3)c(C(=O)O)c2)c1 [Beispiel 7]
15 | 53 | O=C(Nc1ccc(-c2cccs2)c(C(=O)O)c1)c1ccc2ccccc2c1 [Beispiel 13]
16 | 57 | O=C(Nc1ccc(-c2ccco2)c(C(=O)O)c1)c1ccc2ccccc2c1 [Beispiel 14]
17 | 63 | O=C(Nc1ccc(-c2ccco2)c(C(=O)O)c1)c1cnc2ccccc2n1 [Beispiel 15]

same assay, conditions: Inhibitorkonzentration 12,5 µM; Glucose-6-Phosphat 1 mMol/l, 0,1 mg Mikrosomen-Fraktion, pH 7,0, 20 min, room temperature; 12.5 µM

Row | SMILES | % Hemmung [%]
18 | N#Cc1cccc(C(=O)Nc2ccc(C#Cc3ccccc3)c(C(=O)O)c2)c1 [Beispiel 19] | 98
19 | O=C(Nc1ccc(C#Cc2ccccc2)c(C(=O)O)c1)c1cccc(C(F)(F)F)c1 [Beispiel 23] | 63
20 | O=C(Nc1ccc(C#Cc2ccccc2)c(C(=O)O)c1)c1cccc([N+](=O)[O-])c1 [Beispiel 25] | 51
21 | O=C(O)c1cc(NC(=O)c2c(F)c(F)c(F)c(F)c2F)ccc1C#Cc1ccccc1 [Beispiel 26] | 54
22 | CC(C)(O)C(=O)Nc1ccc(C#Cc2ccccc2)c(C(=O)O)c1 [Beispiel 28] | 60
23 | Cc1ccc(C#Cc2ccc(NC(=O)c3cnc4ccccc4n3)cc2C(=O)O)cc1 [Beispiel 29] | 73
24 | COc1ccc(C(=O)Nc2ccc(C#Cc3ccc(C)cc3)c(C(=O)O)c2)c(OC)c1 [Beispiel 30] | 52
25 | Cc1ccc(C#Cc2ccc(NC(=O)CCC3CCCC3)cc2C(=O)O)cc1 [Beispiel 35] | 76
26 | COc1cccc(C(=O)Nc2ccc(C#Cc3ccc(C)cc3)c(C(=O)O)c2)c1 [Beispiel 36] | 78
27 | Cc1ccc(C#Cc2ccc(NC(=O)C(C)C)cc2C(=O)O)cc1 [Beispiel 40] | 94
28 | Cc1ccc(C#Cc2ccc(NC(=O)C(F)(F)C(F)(F)C(F)(F)F)cc2C(=O)O)cc1 [Beispiel 41] | 71

The remaining lines, values ahead:

Row | % Hemmung [%] | SMILES
29 | 98 | COc1cccc(C(=O)Nc2ccc(C#Cc3ccccc3)c(C(=O)O)c2)c1 [Beispiel 18]
30 | 100 | O=C(Nc1ccc(C#Cc2ccccc2)c(C(=O)O)c1)c1ccccc1Cl [Beispiel 20]
31 | 84 | O=C(Nc1ccc(C#Cc2ccccc2)c(C(=O)O)c1)c1ccc(Cl)cc1Cl [Beispiel 21]
32 | 100 | O=C(Nc1ccc(C#Cc2ccccc2)c(C(=O)O)c1)c1cccc(F)c1 [Beispiel 22]
33 | 58 | O=C(O)c1cc(NC(=O)C2CCCCC2)ccc1C#Cc1ccccc1 [Beispiel 24]
34 | 58 | CC(C)(C)CC(=O)Nc1ccc(C#Cc2ccccc2)c(C(=O)O)c1 [Beispiel 27]
35 | 64 | COc1cc(OC)cc(C(=O)Nc2ccc(C#Cc3ccc(C)cc3)c(C(=O)O)c2)c1 [Beispiel 31]
36 | 61 | COc1ccc(C(=O)Nc2ccc(C#Cc3ccc(C)cc3)c(C(=O)O)c2)cc1OC [Beispiel 32]
37 | 77 | Cc1ccc(C#Cc2ccc(NC(=O)c3cc(C(F)(F)F)cc(C(F)(F)F)c3)cc2C(=O)O)cc1 [Beispiel 33]
38 | 50 | Cc1ccc(C#Cc2ccc(NC(=O)c3cccc(C(F)(F)F)c3)cc2C(=O)O)cc1 [Beispiel 34]
39 | 55 | Cc1ccc(C#Cc2ccc(NC(=O)c3cccc(Cl)c3)cc2C(=O)O)cc1 [Beispiel 37]
40 | 50 | Cc1ccc(C#Cc2ccc(NC(=O)c3cccc([N+](=O)[O-])c3)cc2C(=O)O)cc1 [Beispiel 38]
41 | 62 | Cc1ccc(C#Cc2ccc(NS(=O)(=O)c3ccc([N+](=O)[O-])cc3)cc2C(=O)O)cc1 [Beispiel 39]
42 | 60 | Cc1ccc(C#Cc2ccc(NC(=O)c3cccc4ccccc34)cc2C(=O)O)cc1 [Beispiel 42]
43 | 55 | Cc1ccc(C#Cc2ccc(NC(=O)c3ccccc3O)cc2C(=O)O)cc1 [Beispiel 43]
